Patent publication US9056858B2, “Indazole and pyrazolopyridine compounds as CCR1 receptor antagonists” (Boehringer Ingelheim International GmbH, priority 2009, dated 2015)

biological target: T1, CCR1 (Homo sapiens, UniProt P32246); experiment: functional cellular assay measuring calcium flux in CCR1 transfected cells (block of CCR1/MIP-1α interaction); format: cell-based; details: cells stably expressing recombinant CCR1 and G-alpha-16, MIP-1alpha added at EC80
T1 construct: host or cells: Non-adherent cells
T1 sequence (P32246 1-355): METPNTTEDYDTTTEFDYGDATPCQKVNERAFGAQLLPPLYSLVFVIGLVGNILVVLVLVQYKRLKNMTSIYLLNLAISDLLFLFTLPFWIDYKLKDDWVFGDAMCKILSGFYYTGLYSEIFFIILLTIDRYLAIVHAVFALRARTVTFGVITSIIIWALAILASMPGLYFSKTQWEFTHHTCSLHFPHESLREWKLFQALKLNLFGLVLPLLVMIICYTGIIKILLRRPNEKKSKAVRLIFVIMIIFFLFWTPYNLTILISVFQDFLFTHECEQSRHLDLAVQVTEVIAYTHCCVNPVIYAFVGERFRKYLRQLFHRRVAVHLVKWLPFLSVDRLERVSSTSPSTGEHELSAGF
Method: Compounds are assessed for the ability to block the interaction of CCR1 and MIP-1α in a functional cellular assay measuring calcium flux in CCR1 transfected cells.
Non-adherent cells purchased from Chemicon Corporation (HTS005C), stably expressing recombinant CCR1 and G-alpha-16 are grown in RPMI 1640 medium (Mediatech 10-080-CM) supplemented with 10% FBS, 0.4 mg/mL Geneticin and penicillin/streptomycin. On the day of the assay, the cells are loaded with Calcium 4 dye (Molecular Devices R7448) with Probenecid (Invitrogen P346400) at 8E5 cells/mL for 1 hour at room temperature. After 1 hour, they are seeded in a 384-well tissue culture-treated plate at a density of 20,000 cells/well. Appropriately diluted test compound is added to the well to achieve a top concentration of 3,000 nM (diluted 4-fold with 10 doses total). The final concentration of DMSO is 1%. The buffer is HBSS (Invitrogen 14025) with 20 mM HEPES at pH 7.4. The cells incubate 30 minutes at 37 C and then 30 minutes at room temperature. The plates are transferred to the […] FDSS6000 where MIP-1alpha in 1% BSA is added at the EC80 final concentration. All plates must be read within 4 hours of the start of dye-loading. Wells +/− MIP-1alpha containing diluted DMSO instead of compound serve as the controls. Data are analyzed using Activity Base software.

IC50	SMILES
61 nM	Cc1ccccc1C1(NC(=O)c2cncc3c2cnn3-c2ccc(F)cc2)CC1 [1-(4-Fluoro-phenyl)-1H-pyrazolo[3,4-c]pyridine-4-carboxylic acid (1-o-tolyl-cyclopropyl)-amide]
7 nM	CS(=O)(=O)c1ccc(C2(NC(=O)c3cncc4c3cnn4-c3ccc(F)cc3)CC2)cn1 [1-(4-Fluoro-phenyl)-1H-pyrazolo[3,4-c]pyridine-4-carboxylic acid [1-(6-methanesulfonyl-pyridin-3-yl)-cyclopropyl]-amide]
0.1 nM	CS(=O)(=O)c1cc(C2(NC(=O)c3cc(C#N)cc4c3cnn4-c3ccc(F)cc3)CC2)ccn1 [6-Cyano-1-(4-fluoro-phenyl)-1H-indazole-4-carboxylic acid [1-(2-methanesulfonyl-pyridin-4-yl)-cyclopropyl]-amide]
27 nM	O=C(O)c1cccc(C2(NC(=O)c3cncc4c3cnn4-c3ccc(F)cc3)CC2)c1 [3-(1-{[1-(4-Fluoro-phenyl)-1H-pyrazolo[3,4-c]pyridine-4-carbonyl]-amino}-cyclopropyl)-benzoic acid]
